The results in this text go back to ChEMBL document CHEMBL3045575, “Synthesis of tetracyclic aza-/oxa-naphthalen-8-ones and their antimicrobial activity” (2013).

Assay type in all cases: functional
In one assay the test system is Micrococcus luteus. The assay can be described thus: Antibacterial activity against Micrococcus luteus at 100 ppm after 24 hr by cup-plate method. As to conditions: read-out: IZ.
In the next assay the test system is Fusarium graminearum. The assay can be described thus: Antifungal activity against Fusarium graminearum at 100 ug after 7 days by poison-food method. As to conditions: 168 h, read-out: IZ.
The test system of the next assay is Staphylococcus aureus. The assay can be described thus: Antibacterial activity against Staphylococcus aureus at 100 ppm after 24 hr by cup-plate method. As to conditions: read-out: IZ.
Another assay relates to Escherichia coli. The assay can be described thus: Antibacterial activity against Escherichia coli at 100 ppm after 24 hr by cup-plate method. As to conditions: read-out: IZ.

`O=C1CC2c3ccc4ccccc4c3OC2N1c1ccccc1` (stereo not drawn): the zone of inhibition at 100 ppm stood at 11 mm with Micrococcus luteus, 10 mm with Staphylococcus aureus and 11 mm with Escherichia coli. For the same molecule, in the assay with Fusarium graminearum, the zone of inhibition at 100 µg/disc turned out to be 45 mm.
For the molecule `Cc1ccc(N2C(=O)CC3c4ccc5ccccc5c4OC32)cc1` (stereo not drawn), the zone of inhibition at 100 ppm in the assay with Micrococcus luteus was 18 mm; in the assay on Staphylococcus aureus, 11 mm; in the assay with Escherichia coli, 10 mm. The zone of inhibition at 100 µg/disc with Fusarium graminearum was determined as 50 mm.
On the same counts, the results for `O=C1CC2c3ccc4ccccc4c3OC2O1` (stereo not drawn) are 10 mm, 10 mm, 11 mm and 45 mm.
The matching figures for `O=C1CC2c3ccc4ccccc4c3OC2N1c1ccc([N+](=O)[O-])cc1` (stereo not drawn): 10 mm, 8 mm, 8 mm and 25 mm.
With `CC1(C)S[C@@H]2[C@H](NC(=O)[C@H](N)c3ccccc3)C(=O)N2[C@H]1C(=O)O` [AMPICILLIN], the zone of inhibition at 100 ppm in the assay with Micrococcus luteus turned out to be 5 mm; in the assay with Staphylococcus aureus, 5 mm; with Escherichia coli, 4 mm.
In the case of `O=C1CC2c3ccc4ccccc4c3OC2N1c1cccc([N+](=O)[O-])c1` (stereo not drawn), the zone of inhibition at 100 ppm with Micrococcus luteus is 9 mm; with Staphylococcus aureus, 21 mm; in the assay on Escherichia coli, 9 mm. Moreover, in the assay with Fusarium graminearum, the zone of inhibition at 100 µg/disc is 25 mm.
